Laboratory results as given in patent US12344614B2, “Benzodiazepine derivatives as GABA a GAMMA1 PAM” (Hoffmann-La Roche Inc., priority 2021, dated 2025).
Read-outs that look alike come from different tables or passages of the source.

Legend:
[1] = target: human GABAA α5β2γ1 receptor (Homo sapiens (Human), UniProt P31644+Q8N1C3); assay: Radioligand binding assay, competition for [3H]RO7239181, membranes from HEK293F cells
Description: The affinity of compounds at GABAA γ1 subunit-containing receptors was measured by competition for [^3H]RO7239181 (67.3 Ci/mmol; Roche) binding to membranes from HEK293F cells (ThermoFisher R79007) expressing human (transiently transfected) receptors of composition α5β2γ1, α2β2γ1, α1β2γ1. For better protein expression of the α2 subunit-containing receptors, the 28 amino acid long signal peptide (Met1 to Ala28) of the human GABAA α2 subunit was substituted by the 31 amino acid long signal peptide (Met1 to Ser31) of human GABAA α5 subunit.
(§1) Harvested pellets from HEK293F cells expressing the different GABAA receptor subtypes were resuspended in Mannitol Buffer pH 7.2-7.4 (Mannitol 0.29M, Triethylamine 10 mM, Acetic acid 10 mM, EDTA 1 mM plus protease inhibitors (20 tablets Complete, Roche Diagnostics Cat. No. 05 056 489 001 per liter)), washed two times and then resuspended at 1:10 to 1:15 dilution in the same buffer. Cell disruption was performed by stirring the suspension in a Parr vessel #4637 at 435 psi for 15 minutes, and then the suspensions were centrifuged at 1000×g for 15 minutes at 4° C. (Beckman Avanti J-HC; rotor JS-4.2). The supernatant (S1) was transferred in a 21 Schott flask and the pellet (P1) was resuspended with Mannitol Buffer up to 175 ml. The resuspended pellet was transferred into a 250 ml Corning centrifugal beaker and centrifuged at 1500×g for 10 minutes at 4° C. (Beckman Avanti J-HC; rotor JS-4.2). The supernatant (S1) was then transferred in the 21 Schott flask and the pellet was discarded. The supernatants (S1) were centrifuged in 500 ml Beckman polypropylene centrifugal beaker at 15′000×g for 30 minutes at 4° C. (Beckman Avanti J-20 XP; rotor JLA-10.500). The pellet (P2) was resuspended with Mannitol Buffer 1:1 and frozen at −80° C. The supernatant (S2) was centrifuged in 100 ml Beckman polypropylene centrifugal tubes at 48000×g for 50 minutes at 4° C. (Beckman Avanti J-20 XP; rotor JA-18). The supernatant (S3) was discarded and the pellet (P3) was resuspended with 1:1 Mannitol Buffer. The P2 and P3 protein concentration was determined with the BIORAD Standard assay method with bovine serum albumin as standard and measured on the NANO-Drop 1000. The membrane suspension was aliquots (500 μl per tube) and stored at −80° C. until required.
(§2) Membrane homogenates were resuspended and polytronised (Polytron PT1200E Kinematica AG) in Potassium Phosphate 10 mM, KCl 100 mM binding buffer at pH 7.4 to a final assay concentration determined with a previous experiment.
Radioligand binding assays were carried out in a volume of 200 μL (96-well plates) which contained 100 μL of cell membranes, [^3H]RO7239181 at a concentration of 1.5 nM (α5β2γ1) or 20-30 nM (α1β2γ1, α2β2γ1) and the test compound in the range of [0.3-10000]×10^−9 M. Nonspecific binding was defined by 10×10^−6 (α5β2γ1) and 30×10^−6 M RO7239181 and typically represented less than 5% (α5β2γ1) and less than 20% (α1β2γ1, α2β2γ1) of the total binding. Assays were incubated to equilibrium for 1 hour at 4° C. and then, membranes were filtered onto unifilter (96-well white microplate with bonded GF/C filters preincubated 20-50 minutes in 0.3% Polyethylenimine) with a Filtermate 196 harvester (Packard BioScience) and washed 4 times with cold Potassium Phosphate 10 mM pH 7.4, KCl 100 mM binding buffer. After anhydrousing, filter-retained radioactivity was detected by liquid scintillation counting. Ki values were calculated using Excel-Fit (Microsoft) and are the means of two determinations.
Representative test results, obtained by the above described assay measuring binding affinity to HEK293 cells expressing human (h) receptors, are shown in the Table 1.

[2] = target: human GABAA α1β3γ2 receptor (Homo sapiens (Human), UniProt P14867+P18507); assay: Radioligand binding assay, competition for [3H]Flumazenil, HEK293F cells; conditions: for γ2/γ1 Selectivity Ratio: Ki α1β3γ2 (nM)/Ki α2β2γ1 (nM); for LogSel: Log[Ki α1β3γ2 (nM)/Ki α2β2γ1 (nM)]
Description: The affinity of compounds at GABAA γ2 subunit-containing receptors was measured by competition for [^3H]Flumazenil (81.1 Ci/mmol; Roche) binding to HEK293F cells expressing human (transiently transfected) receptors of composition α1β3γ2.
Harvested pellets from HEK293F cells expressing the different GABAA γ2 receptor subtypes were resuspended in Mannitol Buffer pH 7.2-7.4 and processed as described above for the cells expressing the GABAA γ1 subunit-containing receptors.
Assays were incubated to equilibrium for 1 hour at 4° C. and harvested onto GF/C uni-filters (Packard) by filtration using a Packard harvester and washing with ice-cold wash buffer (50 mM Tris; pH 7.5). After anhydrousing, filter-retained radioactivity was detected by liquid scintillation counting. Ki values were calculated using Excel-Fit (Microsoft) and are the means of two determinations.

[3] = target: human GABAA α2β2γ1 receptor (Homo sapiens (Human), UniProt P47869+Q8N1C3); assay: Radioligand binding assay, competition for [3H]RO7239181, membranes from HEK293F cells
Description: The affinity of compounds at GABAA γ1 subunit-containing receptors was measured by competition for [^3H]RO7239181 (67.3 Ci/mmol; Roche) binding to membranes from HEK293F cells (ThermoFisher R79007) expressing human (transiently transfected) receptors of composition α5β2γ1, α2β2γ1, α1β2γ1.
as §1, §2
Assays were incubated to equilibrium for 1 hour at 4° C. and then, membranes were filtered onto unifilter (96-well white microplate with bonded GF/C filters preincubated 20-50 minutes in 0.3% Polyethylenimine) with a Filtermate 196 harvester (Packard BioScience) and washed 4 times with cold Potassium Phosphate 10 mM pH 7.4, KCl 100 mM binding buffer. After anhydrousing, filter-retained radioactivity was detected by liquid scintillation counting. Ki values were calculated using Excel-Fit (Microsoft) and are the means of two determinations.

[4] = read-out: Ki h-GABAA α2β2γ1, [3H]RO7239181 20-30 nM, HEK293F membranes, 1 hour at 4° C., mean of two determinations

Row | Compound | Ki [1] | Ki [2] | γ2/γ1 Selectivity Ratio [2] | LogSel [2] | Ki [3] | Ki [3, 4]
1 | Cc1nc2n(n1)-c1ccc(C(F)(F)F)c(Cl)c1C(c1nc(O)ccc1Cl)=N[C@H]2C [Example 29, 5-chloro-6-[(4S)-7-chloro-2,4-dimethyl-8-(trifluoromethyl)-4H-[1,2,4]triazolo[1,5-a][1,4]benzodiazepin-6-yl]pyridin-2-ol] | 3.63 nM | 12000 nM | 1557.5 | 3.19 | 7.7 nM | 7.7 nM
2 | COC1CN(C(=O)c2ncn3c2CN=C(c2cc(O)ccc2F)c2c-3ccc(C(F)(F)F)c2Cl)C1 [Example 15, [7-chloro-6-(2-fluoro-5-hydroxy-phenyl)-8-(trifluoromethyl)-4H-imidazo[1,5-a][1,4]benzodiazepin-3-yl]-(3-methoxyazetidin-1-yl)methanone] | 0.85 nM | 121 nM | 28.9 | 1.46 | 4.18 nM | 4.18 nM
3 | Cc1nnc2n1-c1ccc(Cl)c(Cl)c1C(c1cc(O)ccc1F)=NC2 [Example 3, 3-(7,8-dichloro-1-methyl-4H-[1,2,4]triazolo[4,3-a][1,4]benzodiazepin-6-yl)-4-fluoro-phenol] | 0.36 nM | 34.3 nM | 23.7 | 1.37 | 1.45 nM | 1.45 nM
4 | Oc1ccc(F)c(C2=NCc3nncn3-c3ccc(C(F)(F)F)c(Cl)c32)c1 [Example 10, 3-[7-chloro-8-(trifluoromethyl)-4H-[1,2,4]triazolo[4,3-a][1,4]benzodiazepin-6-yl]-4-fluoro-phenol] | 0.27 nM | 89.9 nM | 86.5 | 1.94 | 1.04 nM | 1.04 nM
5 | C[C@@H]1N=C(c2c(F)ccc(O)c2F)c2c(ccc(Cl)c2Cl)-n2ccc(=O)nc21 [Example 18, (5S)-8,9-dichloro-7-(2,6-difluoro-3-hydroxy-phenyl)-5-methyl-5H-pyrimido[1,2-a][1,4]benzodiazepin-3-one] | 1.3 nM | 255 nM | 38.7 | 1.59 | 6.6 nM | 6.6 nM
6 | CN1C(=O)CN=C(c2c(F)ccc(O)c2F)c2c1ccc(Cl)c2Cl [Example 12, 6,7-dichloro-5-(2,6-difluoro-3-hydroxy-phenyl)-1-methyl-3H-1,4-benzodiazepin-2-one] | 0.46 nM | 371 nM | 175.4 | 2.24 | 2.12 nM | 2.12 nM
7 | C[C@@H]1N=C(c2nc(O)ccc2F)c2c(ccc(C(F)(F)F)c2Cl)-n2c1nc1c2CCC1 [Example 24, 6-[(10S)-6-chloro-10-methyl-5-(trifluoromethyl)-1,9,12-triazatetracyclo[9.6.0.02,7.013,17]heptadeca-2(7),3,5,8,11,13(17)-hexaen-8-yl]-5-fluoro-pyridin-2-ol] | 8.6 nM | 4190 nM | 634.3 | 2.80 | 6.61 nM | 6.61 nM
8 | O=c1ccn2c(n1)CN=C(c1cc(O)ccc1F)c1c-2ccc(C(F)(F)F)c1Cl [Example 11, 8-chloro-7-(2-fluoro-5-hydroxy-phenyl)-9-(trifluoromethyl)-5H-pyrimido[1,2-a][1,4]benzodiazepin-3-one] | 1.54 nM | 359 nM | 191.3 | 2.28 | 1.88 nM | 1.88 nM
9 | Cc1nnc2n1-c1ccc(C(F)(F)F)c(Cl)c1C(c1nc(O)ccc1Cl)=N[C@H]2C [Example 22, 5-chloro-6-[(4S)-7-chloro-1,4-dimethyl-8-(trifluoromethyl)-4H-[1,2,4]triazolo[4,3-a][1,4]benzodiazepin-6-yl]pyridin-2-ol] | 20.9 nM | 9690 nM | 704.8 | 2.85 | 13.7 nM | 13.7 nM
10 | C[C@@H]1N=C(c2nc(O)ccc2F)c2c(ccc(C(F)(F)F)c2Cl)-n2cc(C(=O)N3CCC3)nc21 [Example 30, azetidin-1-yl-[(4S)-7-chloro-6-(3-fluoro-6-hydroxy-2-pyridyl)-4-methyl-8-(trifluoromethyl)-4H-imidazo[1,2-a][1,4]benzodiazepin-2-yl]methanone] | 8.77 nM | 13000 nM | 280.8 | 2.45 | 46.3 nM | 46.3 nM
11 | C[C@@H]1N=C(c2cc(O)ccc2F)c2c(ccc(Cl)c2Cl)-n2ccc(=O)nc21 [Example 5, (5S)-8,9-dichloro-7-(2-fluoro-5-hydroxy-phenyl)-5-methyl-5H-pyrimido[1,2-a][1,4]benzodiazepin-3-one] | 0.39 nM | 255 nM | 182.4 | 2.26 | 1.4 nM | 1.4 nM
12 | Cc1nnc2n1-c1ccc(C(F)(F)F)c(Cl)c1C(c1cc(O)ccc1F)=N[C@H]2C [Example 17, 4-fluoro-3-[(4S)-7-chloro-1,4-dimethyl-8-(trifluoromethyl)-4H-[1,2,4]triazolo[4,3-a][1,4]benzodiazepin-6-yl]phenol] | 0.99 nM | 68.8 nM | 39.3 | 1.59 | 1.75 nM | 1.75 nM
13 | Cc1cnc2n1-c1ccc(C(F)(F)F)c(Cl)c1C(c1nc(O)ccc1Cl)=N[C@H]2C [Example 26, 5-chloro-6-[(4S)-7-chloro-1,4-dimethyl-8-(trifluoromethyl)-4H-imidazo[1,2-a][1,4]benzodiazepin-6-yl]pyridin-2-ol] | 3.25 nM | 6730 nM | 853.7 | 2.93 | 7.88 nM | 7.88 nM
